Laboratory results from ChEMBL document CHEMBL2151016, “Synthesis and in vitro antiproliferative activity of new 11-aminoalkylamino-substituted chromeno[2,3-b]indoles” (Eur J Med Chem, 2012).

What was measured:
MV4-11 = assay: Cytotoxicity against human MV4-11 cells after 72 hrs by MTT assay; details: MV4-11, 72 h
HCT-116 = assay: Cytotoxicity against human HCT116 cells after 72 hrs by SRB assay; details: HCT-116, 72 h
BALB/3T3 [1] = assay: Ratio of IC50 for mouse BALB/3T3 cells to IC50 for human A549 cells
A549 [2] = assay: Ratio of IC50 for human A549 cells to IC50 for human HCT116 cells; assay type: functional
BALB/3T3 [3] = assay: Cytotoxicity against mouse BALB/3T3 cells after 72 hrs by SRB assay; details: BALB/3T3, 72 h
A549 [4] = assay: Cytotoxicity against human A549 cells after 72 hrs by SRB assay; details: A549, 72 h
BALB/3T3 [5] = assay: Ratio of IC50 for mouse BALB/3T3 cells to IC50 for human HCT116 cells
L6 = assay: Cytotoxicity against rat L6 cells; assay type: cell-based

Clc1ccc2oc3nc4ccccc4c-3c(N3CCOCC3)c2c1
IC50 (MV4-11): > 29.5 µM

OCCCNc1c2c3ccccc3nc-2oc2ccccc12
IC50 (MV4-11): 7.66 µM

COc1ccc2oc3nc4ccccc4c-3c(NCCCO)c2c1
IC50 (MV4-11): 7.26 µM

CCN(CC)CCCC(C)Nc1c2c3ccccc3nc-2oc2ccc(OC)cc12 (configuration not stated)
IC50 (MV4-11): 3.45 µM

CCN(CC)CCCC(C)Nc1c2c3ccccc3nc-2oc2ccc(Cl)cc12 (configuration not stated)
IC50 (MV4-11): 7 µM

OCCCNc1c2c3ccccc3nc-2oc2ccc(Br)cc12
IC50 (MV4-11): > 26.9 µM

O=S(=O)(NCCCNc1c2c3ccccc3nc-2oc2ccc(Br)cc12)c1ccc2ccccc2c1
IC50 (MV4-11): 5.75 µM

NCCCCNc1c2c3ccccc3nc-2oc2ccc(Cl)cc12
IC50 (HCT-116): 2.03 µM | Ratio IC50 (BALB/3T3 [1]): 2 | Ratio IC50 (A549 [2]): 3 | IC50 (BALB/3T3 [3]): 11 µM | IC50 (MV4-11): 0.76 µM | IC50 (A549 [4]): 5.56 µM

Clc1ccc2oc3nc4ccccc4c-3c(NCCc3c[nH]c4ccccc34)c2c1
IC50 (MV4-11): 7.57 µM

COc1ccc2oc3nc4ccccc4c-3c(N3CCOCC3)c2c1
IC50 (HCT-116): 1.7 µM | Ratio IC50 (A549 [2]): 5 | IC50 (BALB/3T3 [3]): 8.73 µM | IC50 (MV4-11): 0.38 µM | IC50 (A549 [4]): 10.6 µM | Ratio IC50 (BALB/3T3 [5]): 5

NCCCNc1c2c3ccccc3nc-2oc2ccc(Cl)cc12
IC50 (HCT-116): 3.28 µM | Ratio IC50 (BALB/3T3 [1]): 2 | IC50 (BALB/3T3 [3]): 10.1 µM | IC50 (MV4-11): 0.86 µM | IC50 (A549 [4]): 5.59 µM

COc1ccc2oc3nc4ccccc4c-3c(Nc3ccccc3)c2c1
IC50 (MV4-11): 4.35 µM

O=S(=O)(NCCCNc1c2c3ccccc3nc-2oc2ccccc12)c1ccccc1
IC50 (MV4-11): > 23.2 µM

O=S(=O)(NCCCNc1c2c3ccccc3nc-2oc2ccc(Br)cc12)c1ccccc1
IC50 (MV4-11): > 19.6 µM

COc1ccc2oc3nc4ccccc4c-3c(NCCCNC(=O)Nc3ccccc3)c2c1
IC50 (L6): 169 µM

Brc1ccc2oc3nc4ccccc4c-3c(N3CCOCC3)c2c1
IC50 (MV4-11): 25.3 µM

NCCCCNc1c2c3ccccc3nc-2oc2ccccc12
IC50 (HCT-116): 7.2 µM | IC50 (BALB/3T3 [3]): 12.1 µM | IC50 (MV4-11): 0.76 µM | IC50 (A549 [4]): 3.9 µM

C=CCNc1c2c3ccccc3nc-2oc2ccc(Cl)cc12
IC50 (MV4-11): > 32.4 µM

COc1ccc2c(c1)c(NCCCNC(=O)Nc1ccccc1)c1c3ccccc3nc-1n2C
IC50 (L6): 2.7 µM

c1ccc2c3c(N4CCOCC4)c4ccccc4oc-3nc2c1
IC50 (MV4-11): 9.2 µM

NCCCCNc1c2c3ccccc3nc-2oc2ccc(Br)cc12
IC50 (HCT-116): 6.74 µM | IC50 (BALB/3T3 [3]): 9.55 µM | IC50 (MV4-11): 0.72 µM | IC50 (A549 [4]): 7.36 µM

COc1ccc2oc3nc4ccccc4c-3c(NCCc3c[nH]c4ccccc34)c2c1
IC50 (MV4-11): 3.04 µM

CS(=O)(=O)NCCCNc1c2c3ccccc3nc-2oc2ccc(Br)cc12
IC50 (MV4-11): 6.22 µM

NCCCNc1c2c3ccccc3nc-2oc2ccccc12
IC50 (HCT-116): 5.7 µM | Ratio IC50 (BALB/3T3 [1]): 2 | IC50 (BALB/3T3 [3]): 13.4 µM | IC50 (MV4-11): 1.02 µM | IC50 (A549 [4]): 4.26 µM

CCN(CC)CCCC(C)Nc1c2c3ccccc3nc-2oc2ccc(Br)cc12 (configuration not stated)
IC50 (MV4-11): 4.93 µM

OCCCNc1c2c3ccccc3nc-2oc2ccc(Cl)cc12
IC50 (MV4-11): > 30.6 µM

NCCCNc1c2c3ccccc3nc-2oc2ccc(Br)cc12
IC50 (HCT-116): 4.19 µM | IC50 (BALB/3T3 [3]): 8.94 µM | IC50 (MV4-11): 0.97 µM | IC50 (A549 [4]): 6.19 µM

COc1ccc2oc3nc4ccccc4c-3c(NCCCN)c2c1
IC50 (HCT-116): 1.93 µM | Ratio IC50 (A549 [2]): 5 | IC50 (BALB/3T3 [3]): 6.87 µM | IC50 (MV4-11): 0.12 µM | IC50 (A549 [4]): 9.29 µM | Ratio IC50 (BALB/3T3 [5]): 5

O=S(=O)(NCCCNc1c2c3ccccc3nc-2oc2ccccc12)c1ccc2ccccc2c1
IC50 (MV4-11): 2.41 µM

CS(=O)(=O)NCCCNc1c2c3ccccc3nc-2oc2ccccc12
IC50 (MV4-11): 7.74 µM

CCN(CC)CCCC(C)Nc1c2c3ccccc3nc-2oc2ccccc12 (configuration not stated)
IC50 (MV4-11): 6.02 µM

CN1CCCN(c2c3c4ccccc4nc-3oc3ccc(Cl)cc23)CC1
IC50 (HCT-116): 9.68 µM | IC50 (BALB/3T3 [3]): 16.8 µM | IC50 (MV4-11): 0.63 µM | IC50 (A549 [4]): 10.8 µM
